# From the METLIN SMRT retention time set (Domingo-Almenara et al. 2019)
# Assay: gradient 5% acetonitrile 3 min, to 50% in 2 min, to 85% in 15 min, held 3 min, 100 µL/min
# Conditions: column: Zorbax Extend-C18 2.1 x 50 mm; eluents: water / acetonitrile, 0.1% formic acid
# How it was run: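 Using water and acetonitrile that each contained 0.1% formic acid, mixtures of ~100 pure standards were separated at 100 μL/min on a Zorbax Extend-C18 column (2.1 × 50 mm, 1.8 μm). The HPLC fed a quadrupole time-of-flight mass spectrometer working in positive and negative ionization mode, with dead and dwell volumes of 40 μL and 900 μL. Data were acquired over 3 months. Retention time was read from computationally picked adduct peaks after manual inspection of each.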
row,RP-LC retention time,Structure (SMILES)
1,977 s,Cc1ccc(-c2cc(C(=O)NC(C)C)n(C)c2)cc1
2,655 s,O=C(Cn1cnc2nc(N3CCC(C(=O)NC4CC4)CC3)sc2c1=O)Nc1ccc(F)cc1
3,1030 s,CCCCCCCCN[C@H](C)[C@@H](O)c1ccc(SC(C)C)cc1
4,1290 s,CCc1nc(-c2cccc(-c3noc(COc4ccc(F)cc4)n3)c2)cs1
5,786 s,CCC(C)NS(=O)(=O)c1cccc(-c2nc(-c3ccccc3)no2)c1 (stereo unspecified)
6,971 s,CCOC(=O)C1CCCN(C(=O)CCCn2c(=O)c3cccn3c3ccc(Br)cc32)C1 (stereo unspecified)
7,760 s,CCc1noc(-c2ccnc(-n3ncc(C(=O)N4CCOCC4)c3C)c2)n1
8,1220 s,Cc1nc(-c2cc(S(=O)(=O)N3CCCCC3C)c(C)s2)sc1C (stereo unspecified)
9,562 s,Cc1nnc(NC(=O)Cn2cccn2)s1
10,932 s,CC1(C)CC(=O)c2cn(-c3ccccc3)c(=O)c(C(=O)NC3CCCC3)c2C1
11,678 s,O=C(CN1C(=O)CCCc2ccccc21)N1CCN(C(=O)c2ccco2)CC1
12,634 s,CN1CCN(C(=O)C(=O)Nc2c3c(nn2-c2ccc(Cl)cc2)CSC3)CC1
13,785 s,Cc1cc(C)cc(Nc2nc(C)cc(=O)n2CC(=O)Nc2ccc3c(c2)OCCO3)c1
14,712 s,O=C(NCC1CC1)c1cn(C2CN(C(=O)CCc3c[nH]c4ccccc34)C2)nn1
15,958 s,Cc1nn(-c2ccccc2)c(C)c1S(=O)(=O)N1CCC(C(=O)Nc2cccc(C#N)c2)CC1
16,726 s,CCOc1ccc(N2CC(c3nnc(NC(=O)CCc4ccccc4)o3)CC2=O)cc1 (stereo unspecified)
17,936 s,Cc1c(Cl)cccc1NC(=O)CSc1nnc2c3cc(-c4ccc(F)cc4)nn3ccn12
18,608 s,CCNc1cc(N2CCC(CCC(=O)N3CCCC3)CC2)ncn1

row,RP-LC retention time,Structure (SMILES)
1,712 s,COc1ccc(-c2c(C(=O)O)nnn2-c2ccc(OC)c(OC)c2)cc1
2,871 s,COc1cc(OC)c(NC(=O)Cn2c(=O)n(-c3cccc(C)c3)c(=O)c3c2cc(C)n3C)cc1Cl
3,779 s,O=C(Cn1nc2c(N3CCOCC3)nccn2c1=O)Nc1ccc(Br)cc1F
4,713 s,Cc1ccc(S(=O)(=O)Nc2ccc(-c3cn4cccnc4n3)cc2)cc1[N+](=O)[O-]
5,614 s,Cn1c(=O)c(=O)n(C)c2cc(N3CCCC3)c(NC(=O)C3CC3)cc21
6,1130 s,CC(C)n1cc(C2=CCN(S(=O)(=O)Cc3cccc(Cl)c3)CC2)c2cccnc21
7,934 s,CN(CCc1noc(COc2ccc(Cl)cc2)n1)C(=O)Nc1ccc(F)cc1
8,564 s,CCC(C)(C(=O)NC1CCCCC1)N(Cc1ccco1)C(=O)c1ccc2c(c1)OCO2 (stereo unspecified)
9,852 s,Cc1nnc(SCC(=O)Nc2nc(-c3ccccc3)ns2)s1
10,684 s,CCCCNC(=O)C1CCN(C(=O)Nc2ccc(NC(=O)NC3CCCC3)cc2)CC1
11,731 s,Cc1ccc(-c2cc(N3CCN(C(=O)c4cc(C)cc(C)c4)CC3)ncn2)cc1
12,730 s,CCc1ccccc1NC(=O)N1CCC(N2CCN(Cc3ccccc3)C(=O)C2=O)CC1
13,537 s,O=C(Cc1cccnc1)N1CCCn2nc(-c3ccc(F)cc3)cc2C1
14,847 s,O=C(c1cc(F)ccc1Cl)N1CCN(c2cc(-c3ccc(F)cc3)[nH]n2)CC1
15,843 s,Cc1ccccc1Nc1c(-c2cc(Br)ccc2F)nc2c(C)cccn12
16,905 s,O=c1ccn(-c2cccc(F)c2)nc1-c1nc(-c2ccccc2Br)no1
17,984 s,CCNC(=O)N1CCc2c([nH]c3ccc(OC)cc23)C12C(=O)N(C)c1ccccc12 (stereo unspecified)
18,886 s,O=C(NC(c1ccccc1)c1ccccc1)N1CCN(CC(F)(F)F)CC1
